The text below walks through data of patent US20150045387A1, “Bi-Aromatic And Tri-Aromatic Compounds As NADPH Oxidase 2 (Nox2) Inhibitors” (The University of Surrey, priority 2011, published 2015).

The subject of data set [1] is human liver hepatocyte cells (HepG2 cells). Put plainly: MTT assay for cytotoxicity, HepG2. In kind it is cell-based. To be noted: HepG2, LMH001 5 and 10 μM, 24 h. Here is the method: (§1) FIG. 8 is a graph showing no cytotoxicity of LMH001 on living mouse microvascular endothelial cells (SVEC4-10 cells) and human liver hepatocyte cells (HepG2 cells), assessed by means of an MTT assay. Cells were cultured with LMH001 (5 and 10 μM) for 24 h. MTT is a yellow tetrazolium reagent which can be converted by living cells to insoluble blue formazan crystal in the medium. The insoluble blue formazan crystals were then dissolved in DMSO and measured for absorbance at 570 nm by a plate reader. Higher absorbance corresponds to more living cells. Results are presented as mean±SD (n=3).
HepG2 is a human hepatocytic cell line (ATCC No. HB-8065) that was originally derived from liver tissue with a well differentiated hepatocellular carcinoma. HepG2 cells have been proven to be a suitable in vitro model system for the study of human hepatocytes, and the study of liver metabolism and toxicity. HepG2 cells were grown in DMEM, containing 10% (v/v) heat inactivated foetal calf serum, 100 U/mL penicillin and […] streptomycin, in a humidified atmosphere at 37° C. with 5% CO2.
(§2) The potential cytotoxicity of LMH001 on cultured endothelial cells (SVEC4-10) and liver cells (HepG2) was assessed using the MIT assay as described previously (16). […] Absorbance was measured at 570 nm in an ELISA plate reader and the mean of 3 blank readings was subtracted from each corrected value.

The test system of data set [2] is microvascular endothelial cells (SVEC4-10). Put plainly: basal and angiotensin II induced O2.- production, lucigenin-chemiluminescence. To be noted: LMH001 5 μM, 24 h in culture, cell homogenates, NADPH-dependent. The format is cell-based, mouse. Here is the method:
FIG. 10 is a graph showing the effects of LMH001 in culture on basal and angiotensin II induced O2.^− production by microvascular endothelial cells (SVEC4-10). SVEC4-10 cells were cultured in medium alone (Basal) or in the presence of Angiotensin II (AngII, 200 nM) with or without LMH001 (5 μM) for 24 h. Cells were then harvested and cell homogenates were used for the measurement of NADPH-dependent O2.^− production by lucigenin-chemiluminescence. *P<0.05 (n=3 experiments). […]
O2^− production by different cell types was measured using lucigenin (5 μM)-chemiluminescence. A microplate luminometer (LumiStar, BMG) was used, which allows the examination of 96 samples at the same time with kinetic reading facilities. […] Dark-adapted lucigenin (5 μM) was added into the well through an auto-dispenser located in the dark chamber just before reading. The light emission was recorded over a 60 minute period and expressed as arbitrary MLU measured by the illuminometer. Each experiment was performed in triplicate and the mean of 3 blank readings was subtracted from each corrected value for each reading. […]
O2^− production was also studied using total cell homogenate (for the endothelial cells and the fibroblasts). […] Soluble protein concentration was determined using a kit from Bio-Rad Laboratories Ltd. (Hertfordshire, U.K.). […]

For data set [3], the system named is mouse microvascular endothelial cells (SVEC4-10 cells). In words: MTT assay for cytotoxicity, SVEC4-10. To be noted: SVEC4-10, LMH001 5 and 10 μM, 24 h. In kind it is cell-based. Here is the method: as §1
The mouse lymph node microvascular endothelial cell line (SVEC4-10) was from the American Type Culture Collection (CRL-2167) and grown in DMEM, containing 10% (v/v) heat inactivated foetal calf serum, 100 U/mL penicillin and […] streptomycin, in a humidified atmosphere at 37° C. with 5% CO2.
as §2

For the compound `O=C(OCc1cccc(O)c1O)c1ccc(O)c(CO)c1` [LMH001, (2,3,-dihydroxyphenyl)methyl 4-hydroxy-3-(hydroxymethyl)benzoate], the “cytotoxicity, MTT absorbance at 570 nm” value in data set [1] and in data set [3] was “no significant difference” in each case. The “AngII-induced endothelial O2.- production” value in data set [2] (Angiotensin II 200 nM) is recorded as “completely inhibited”. Also, in data set [2] (medium alone), the “basal cell O2.- production” value was “no effect”.
